Results taken from ChEMBL document CHEMBL3864171, “Pyridyl Isonicotinamide Inhibitors of RAF Kinase” (ACS Med Chem Lett, 2016).

Target: RAF proto-oncogene serine/threonine-protein kinase (Homo sapiens, UniProt P04049)
Test: Inhibition of 1 to 324 residues truncated c-Raf (unknown origin) expressed in baculovirus infected Sf9 insect cells using full length biotinylated MEK1 ATP binding site K97R mutant as substrate preincubated for 60 mins followed by ATP addition measured after 1 hr by alpha screen assay

Sequence of RAF proto-oncogene serine/threonine-protein kinase (P04049 whole entry, the tested form may be a part): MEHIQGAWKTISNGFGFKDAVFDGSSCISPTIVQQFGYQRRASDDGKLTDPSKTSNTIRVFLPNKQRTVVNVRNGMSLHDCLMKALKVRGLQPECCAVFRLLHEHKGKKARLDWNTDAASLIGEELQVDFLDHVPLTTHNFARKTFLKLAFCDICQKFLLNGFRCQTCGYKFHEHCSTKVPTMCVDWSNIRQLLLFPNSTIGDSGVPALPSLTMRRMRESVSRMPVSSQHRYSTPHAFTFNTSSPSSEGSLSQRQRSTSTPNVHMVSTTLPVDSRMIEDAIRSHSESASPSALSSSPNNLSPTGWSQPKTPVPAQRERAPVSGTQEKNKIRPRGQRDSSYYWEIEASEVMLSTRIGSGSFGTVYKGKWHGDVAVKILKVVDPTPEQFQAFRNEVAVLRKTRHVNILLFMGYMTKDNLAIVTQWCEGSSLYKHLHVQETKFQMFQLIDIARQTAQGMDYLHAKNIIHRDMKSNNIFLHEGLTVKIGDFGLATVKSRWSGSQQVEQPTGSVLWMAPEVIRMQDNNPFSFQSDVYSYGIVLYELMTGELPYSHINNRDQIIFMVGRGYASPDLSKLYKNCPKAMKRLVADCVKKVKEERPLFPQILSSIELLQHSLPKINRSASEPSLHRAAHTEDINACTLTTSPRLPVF

Row | SMILES | IC50 [nM]
1 | Cc1ccc(NC(=O)c2ccnc(C(F)(F)F)c2)cc1-c1cnc(OCCOP(=O)(O)O)c(N2CCOCC2)c1 | 0.03
2 | Cc1ccc(NC(=O)c2ccnc(C(C)(F)F)c2)cc1-c1cc(OCCOP(=O)(O)O)nc(N2CCOC[C@H]2C)c1 | 0.1
3 | Cc1ccc(NC(=O)c2ccnc(C(F)(F)F)c2)cc1-c1cc(OCCOP(=O)(O)O)nc(N2CCOC[C@H]2C)c1 | 2
4 | Cc1ccc(NC(=O)c2ccnc(C(F)(F)F)c2)cc1-c1cc(OCCOP(=O)(O)O)nc(N2CCOCC2)c1 | 0.1
5 | Cc1ccc(NC(=O)c2cc(C(F)(F)F)ccn2)cc1-c1cc(OCC(O)CP(=O)(O)O)nc(N2CCOCC2)c1 (stereo unspecified) | 0.024
6 | Cc1ccc(NC(=O)c2cccc(C(F)(F)F)c2)cc1-c1cc(OCCOP(=O)(O)O)nc(N2CCOC[C@H]2C)c1 | 6
